Some test systems named below: CAKI-1 renal; COLO 205 colon; UACC-62 melanoma; SNB-19 CNS; K-562 leukemia; HT29 colon; SW-620 colon; UACC-257 melanoma; SF-295 CNS; EKVX NSCLC.
Experiment in all cases: growth of human tumour cells (NCI), 48 h

Values joined by “and” are separate entries in the source; they are usually repeats but may differ in a detail not shown here. Equal values may be shown once.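 Five concentrations, 48 hours, 96-well plates. GI50 is the concentration that inhibits growth by half. TGI: total growth inhibition.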

Regarding `c1ccc([P+](CCC[P+](c2ccccc2)(c2ccccc2)c2ccccc2)(c2ccccc2)c2ccccc2)cc1`, the TGI was over 100 µM with CAKI-1 renal; 96.6 µM and 10.5 µM in the assay on COLO 205 colon; over 100 µM in the assay on UACC-62 melanoma; over 100 µM in the assay on SNB-19 CNS; over 100 µM in the assay with K-562 leukemia; over 100 µM in the assay with HT29 colon. For the same molecule, the TGI was over 100 µM in the assay on SW-620 colon; > 100 µM and 41.1 µM in the assay with UACC-257 melanoma; over 100 µM in the assay with SF-295 CNS; over 100 µM with EKVX NSCLC. For the same molecule, the GI50 in the assay with COLO 205 colon is 2.89 µM; in the assay on SNB-19 CNS, 8.95 µM; in the assay on K-562 leukemia, 4.53 µM; with HT29 colon, 9.89 µM; in the assay with SW-620 colon, 15 µM; in the assay with UACC-257 melanoma it was 2.77 µM. The GI50 in the assay with SF-295 CNS was 16.2 µM.

For the molecule `c1cc(-c2cnn3nc(N4CCOCC4)ccc23)nc(NC2CC2)n1`, the GI50 was 7.21 µM with CAKI-1 renal; 8.06 µM with COLO 205 colon; 7.76 µM in the assay on UACC-62 melanoma; 10.6 µM in the assay on SNB-19 CNS; over 23.6 µM in the assay on K-562 leukemia; 8.35 µM with HT29 colon. Moreover, the GI50 in the assay on SW-620 colon is 8.9 µM; in the assay on UACC-257 melanoma, 7.54 µM; with SF-295 CNS it was 8.72 µM; in the assay with EKVX NSCLC, 10.5 µM. Besides, the TGI in the assay with CAKI-1 renal is over 25 µM; in the assay on COLO 205 colon it was over 23.5 µM; in the assay with UACC-62 melanoma it was over 25 µM; in the assay with SNB-19 CNS, over 25 µM; in the assay on K-562 leukemia, over 25 µM; in the assay on HT29 colon it was over 25 µM. The TGI in the assay with SW-620 colon, with UACC-257 melanoma, with SF-295 CNS and in the assay with EKVX NSCLC was over 25 µM in each case.

With `COc1cc(CCC(=O)NS(=O)(=O)c2ccccc2)cc(OC)c1OC`, the TGI in the assay with CAKI-1 renal, in the assay on COLO 205 colon, in the assay on UACC-62 melanoma, in the assay with SNB-19 CNS, in the assay with K-562 leukemia and in the assay with HT29 colon was over 100 µM in each case. Besides, the TGI in the assay on SW-620 colon, in the assay with UACC-257 melanoma, with SF-295 CNS and with EKVX NSCLC was over 100 µM in each case.

In the case of `Cn1c2cc(Cl)ccc2c2ccc3c(c21)C(=O)C=CC3=O`, the TGI with CAKI-1 renal was 22.1 µM; with COLO 205 colon it was 20.7 µM; with UACC-62 melanoma, over 31.6 µM; with SNB-19 CNS, over 100 µM; in the assay on K-562 leukemia, 11.4 µM; in the assay with HT29 colon, over 64.6 µM. Further, the TGI was 17.9 µM in the assay with SW-620 colon, over 77.3 µM with UACC-257 melanoma, over 100 µM with SF-295 CNS and over 100 µM in the assay on EKVX NSCLC.

Regarding `CN(C)NC(=S)NC12CC3CC(CC(C3)C1)C2`, the TGI in the assay on CAKI-1 renal, in the assay with COLO 205 colon, with UACC-62 melanoma, in the assay on SNB-19 CNS, in the assay with K-562 leukemia and in the assay on HT29 colon was over 100 µM in each case. Further, the TGI with SW-620 colon, with UACC-257 melanoma, with SF-295 CNS and with EKVX NSCLC was over 100 µM in each case.

For the molecule `CC(=O)OC1C/C(C)=C/[C@H](O)CC(C)/C=C/[C@@]2(C)CCC(C(C)(C)O)C12` (stereo partly drawn), the TGI in the assay on CAKI-1 renal, in the assay on COLO 205 colon, with UACC-62 melanoma, in the assay on SNB-19 CNS, in the assay on K-562 leukemia and in the assay with HT29 colon was over 100 µM in each case. Moreover, the TGI in the assay on SW-620 colon, in the assay on UACC-257 melanoma, with SF-295 CNS and with EKVX NSCLC was over 100 µM throughout.

`OCCCCC#Cc1ccccc1C#Cc1cccs1`: the GI50 was 14.6 µM in the assay with CAKI-1 renal; 16.4 µM in the assay with COLO 205 colon; 12.9 µM with UACC-62 melanoma; 16.1 µM with SNB-19 CNS; 20.3 µM with K-562 leukemia; 12 µM with HT29 colon. Besides, the GI50 in the assay with SW-620 colon is 15.9 µM; in the assay on UACC-257 melanoma, 18.8 µM; in the assay with SF-295 CNS, 19 µM; in the assay with EKVX NSCLC, 10.8 µM. The TGI is 28.3 µM in the assay with CAKI-1 renal; 31.5 µM with COLO 205 colon; 25.9 µM in the assay on UACC-62 melanoma; 31.1 µM with SNB-19 CNS; 70.6 µM in the assay with K-562 leukemia; 27.6 µM in the assay on HT29 colon. Besides, the TGI in the assay on SW-620 colon came out at 30.6 µM; with UACC-257 melanoma, 33 µM; in the assay on SF-295 CNS, 34.7 µM; in the assay with EKVX NSCLC it was 23.9 µM.

For the molecule `CCCCCC/C=C\CCCCCCCCCc1c(O)c(OC)cc(O)c1CN(C)C`, the TGI in the assay with CAKI-1 renal amounted to 26.9 µM; in the assay with COLO 205 colon, 4.43 µM; with UACC-62 melanoma, 23.3 µM; in the assay on SNB-19 CNS it was 26.5 µM; with K-562 leukemia it was 4.49 µM; in the assay on HT29 colon, 16.1 µM. Moreover, the TGI was over 100 µM with SW-620 colon, 29.3 µM with UACC-257 melanoma, 16.2 µM with SF-295 CNS and 23.6 µM in the assay with EKVX NSCLC.

Consider `CCN1CCN(c2cc(C)nc(NCc3cc(Nc4ccnc5cc(Cl)ccc45)ccc3F)n2)CC1`, for which the GI50 in the assay on CAKI-1 renal was 2.82 µM; in the assay with COLO 205 colon, 0.897 µM; in the assay on SNB-19 CNS, 3.71 µM; with K-562 leukemia, 1.04 µM; in the assay on HT29 colon, 0.957 µM; with SW-620 colon it was 2.32 µM. For the same molecule, the GI50 was 2.17 µM in the assay on UACC-257 melanoma, 2.05 µM in the assay on SF-295 CNS and 5.45 µM in the assay with EKVX NSCLC. The TGI was 17.1 µM with CAKI-1 renal; 2.81 µM in the assay on COLO 205 colon; over 100 µM with SNB-19 CNS; over 100 µM in the assay with K-562 leukemia; 5.32 µM in the assay on HT29 colon; 15.1 µM in the assay on SW-620 colon. Further, the TGI in the assay on UACC-257 melanoma was 4.33 µM; in the assay on SF-295 CNS, 5.96 µM; with EKVX NSCLC, over 100 µM.

In the case of `C/C(CC(=O)Nc1ccc(NC(=O)/C(C)=N/NS(=O)(=O)c2ccc(C)cc2)cc1)=N\NS(=O)(=O)c1ccc(C)cc1`, the TGI with CAKI-1 renal, with COLO 205 colon, with UACC-62 melanoma, in the assay on K-562 leukemia, in the assay with HT29 colon and in the assay with SW-620 colon was over 100 µM in each case. The TGI with UACC-257 melanoma, in the assay with SF-295 CNS and with EKVX NSCLC was over 100 µM in each case.

Take `NC(=O)N/N=C1/CCCC/C1=C\c1ccccc1`: the TGI in the assay on CAKI-1 renal, in the assay with COLO 205 colon, in the assay on UACC-62 melanoma, with K-562 leukemia, in the assay with HT29 colon and with SW-620 colon was over 100 µM in each case. For the same molecule, the TGI in the assay on UACC-257 melanoma, in the assay on SF-295 CNS and in the assay with EKVX NSCLC was over 100 µM throughout.

These data come from PubChem BioAssay (NCI).
